These results are taken from publication PMC12474180 (Toxins, 2025).

The subject of data set [1] is MlrA.
Data set [2] relates to MlrB.
For data set [3], the system named is MlrC.
Data set [4] concerns MlrC. The note with it: Sphingomonas ACM-3962 and Sphingopyxis sp. C-1; cited from earlier work.
Data set [5] in a line: Sphingopyxis sp. m6 (wild-type) cells in MSM. Conditions: Sphingopyxis sp. m6, 30 °C, up to 6 h.
Data set [6] concerns MlrA. Briefly: purified recombinant MBP-tagged MlrA (0.05 mg/L purified enzymes). Conditions: Sphingopyxis sp. m6, 30 °C, up to 30 min.
In data set [7] the test system is MlrB. Briefly: purified recombinant MBP-tagged MlrB (0.05 mg/L purified enzymes). The note with it: Sphingopyxis sp. m6, 30 °C, up to 6 h.
Data set [8] concerns MlrC. Briefly: purified recombinant MBP-tagged MlrC (0.05 mg/L purified enzymes). Conditions: Sphingopyxis sp. m6, 30 °C, up to 6 h.
Data set [9] concerns MlrB. The note with it: cited from earlier work.
Data set [10] relates to MlrC. Briefly: recombinant MlrC. Conditions: cited from earlier work.
The test system of data set [11] is MlrA. Conditions: cited from earlier work.
Data set [12] can be described thus: knockout mutant m6-ΔmlrB cells in MSM. Conditions: Sphingopyxis sp. m6, 30 °C, up to 6 h.
Data set [13] in a line: knockout mutant m6-ΔmlrC cells in MSM. The note with it: Sphingopyxis sp. m6, 30 °C, up to 6 h.
Data set [14] can be described thus: knockout mutant m6-ΔmlrD cells in MSM. Conditions: Sphingopyxis sp. m6, 30 °C, up to 6 h.
Another data set deals with MlrA, MlrB, MlrC. Briefly: Mlr enzymes of Sphingomonas sp. ACM-3962. Conditions: cited from earlier work.

Like-named read-outs stand apart in the source and are kept apart here.

Turning to `COC(Cc1ccccc1)C(C)C=C(C)C=CC(N)C(C)C(=O)O` (stereo not shown) [Adda, 3-amino-9-methoxy-2,6,8-trimethyl-10-phenyl-deca-4,6-dienoic acid], in the data set with MlrA [1], the “Degrading ability of MlrA” value is “-”. Further, the “Degrading ability of MlrB” value with MlrB [2] is listed as “-”. For the same molecule, the “Degrading ability of MlrC” value in the data set on MlrC [3] is on record as “-”. The “degrading ability of the strain” value in the data set with m6-ΔmlrA, in the data set on m6-ΔmlrB, with m6-ΔmlrC and with m6-ΔmlrD was “can all degrade” in each case.
As to Adda-Glu-Mdha-Ala, the fragment found entry in the data set on MlrC [4] was “Adda”. Besides, the cleaved bond entry (in data set [5]; with MlrC [8]) was “Adda-Glu” throughout. Also, the not cleaved entry with MlrA [6] and in the data set with MlrB [7] was “can’t degrade” in each case.
Consider Adda-Glu-Mdha-Ala-Leu-MeAsp-Arg, for which the fragment found entry in the data set on MlrB [9] was “tetrapeptide (Adda-Glu-Mdha-Ala)”; in the data set on MlrC [4], “Adda”; in the data set with MlrC [10], “hexapeptide compound”. Also, the cleaved bond entry is given as “Ala-Leu” in data set [5], “Ala-Leu” in the data set on MlrB [7] and “Adda-Glu” in the data set with MlrC [8]. In the data set on MlrA [6], the not cleaved entry is recorded as “can’t degrade”.
With cyclo-(Ala-Leu-MeAsp-Arg-Adda-Glu-Mdha), the fragment found entry in the data set with MlrA [11] was “linearized MC-LR (Adda-Glu-Mdha-Ala-Leu-MeAsp-Arg), first_seen”; in [12], “linearized MC-LR, within 1 h and tetrapeptide, minor and Adda”; in data set [13], “linearized MC-LR, within 1 h and tetrapeptide and Adda”; in data set [14], “linearized MC-LR, within 1 h and tetrapeptide and Adda”; in the data set with MlrA, MlrB, MlrC, “linearized MC-LR and tetrapeptide and Adda”. Besides, the cleaved bond result in data set [5] is recorded as “Arg-Adda, first_seen”; in the data set with MlrA [6], “Arg-Adda”. The not cleaved result in the data set on MlrB [7] and in the data set on MlrC [8] was “can’t degrade” throughout.
